Experimental data: PubChem BioAssay (NCI)
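Five concentrations, 48 hours, 96-well plates. GI50: concentration for 50% inhibition of growth. The concentration for full growth arrest is given as TGI.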

Legend:
Assay in all cases: inhibition of tumour cell growth, NCI panel, 48 h
DLD-1 colon = test system: DLD-1 colon
KM20L2 colon = test system: KM20L2 colon
M19-MEL melanoma = test system: M19-MEL melanoma
RXF-631 renal = test system: RXF-631 renal
XF 498 CNS = test system: XF 498 CNS

SMILES | TGI (DLD-1 colon) | TGI (KM20L2 colon) | TGI (M19-MEL melanoma) | TGI (RXF-631 renal) | TGI (XF 498 CNS) | GI50 (DLD-1 colon) | GI50 (M19-MEL melanoma) | GI50 (RXF-631 renal) | GI50 (XF 498 CNS)
COc1cccc(OC)c1/C=N\N1C(=O)c2ccccc2C1=O | > 100 µM | 37.4 µM | > 100 µM | > 100 µM | 86.4 µM | – | – | – | –
CCCCCCCCCCCCCCCC(=O)NCC(OCC)OCC | > 100 µM | > 100 µM | > 100 µM | > 100 µM | > 100 µM | – | – | – | –
CC(C)=NO.CC(C)=NO.CC(C)=NO.CC(C)=NO.[Ti] | > 100 µM | – | > 100 µM | > 100 µM | > 100 µM | > 100 µM | > 100 µM | > 100 µM | > 100 µM
Cc1cc2c(=O)cc(-c3ccncc3)oc2c(C(=O)O)c1C | – | > 100 µM | > 100 µM | > 100 µM | > 100 µM | – | – | – | –
NC1CC(n2ccc(=O)[nH]c2=O)OC1C(O)CO (stereo not given) | > 100 µM | > 100 µM | > 100 µM | > 100 µM | > 100 µM | – | – | – | –
CCOC(=O)/C(=C/c1ccc[nH]1)P(=O)(OCC)OCC | > 100 µM | > 100 µM | > 100 µM | > 100 µM | > 100 µM | – | – | – | –
NC(=O)NC(=O)C1CCC(=O)N1S(=O)(=O)c1ccc(Cl)cc1 (stereo not given) | > 100 µM | > 100 µM | > 100 µM | > 100 µM | > 100 µM | – | – | – | –
CC1=C2[C@@H](c3ccccc3)C3C=CC2(C=C3C(F)(F)F)N(C(=O)NC2CCCCC2)C1=O (stereo not given in full) | > 100 µM | > 100 µM | > 100 µM | > 100 µM | > 100 µM | – | – | – | –
NC1=NN(c2ccccc2)C(=O)C1/C(=N\NC(=O)c1cc2ccccc2cc1O)C(=O)Nc1ccc(Cl)cc1 (stereo not given) | > 100 µM | > 100 µM | 89.6 µM | > 100 µM | > 100 µM | – | – | – | –
COC(=O)N/N=C(\c1nc2ccc(Cl)cc2[nH]c1=O)C(O)c1ccc([N+](=O)[O-])cc1 (stereo not given) | > 100 µM | > 100 µM | > 100 µM | > 100 µM | – | – | – | – | –
O=C(O)C12C3C4C1C1C2C3C41I (stereo not given) | > 100 µM | > 100 µM | > 100 µM | > 100 µM | > 100 µM | – | – | – | –
O=C1COc2cc3c(cc2N1)SCC(=O)N3 | > 100 µM | – | > 100 µM | > 100 µM | > 100 µM | – | – | – | –
Cc1c(C(=O)C/C(=N/NC(=O)CC#N)C(N)=O)[n+](=O)c2ccccc2n1[O-] | > 100 µM | > 100 µM | 50.7 µM | > 100 µM | > 100 µM | – | – | – | –
